Drawing on ChEMBL document CHEMBL1201862, “PubChem BioAssay data set” (2004), this text covers IC50, EC50 and AC50 for 31 compounds.

Activity calls are given as the source filed them.

The target in series [1] is T1, Corticotropin-releasing factor receptor 2/Corticotropin-releasing factor-binding protein (Homo sapiens, UniProt P24387+Q13324).
T1 sequence (Q13324 whole entry): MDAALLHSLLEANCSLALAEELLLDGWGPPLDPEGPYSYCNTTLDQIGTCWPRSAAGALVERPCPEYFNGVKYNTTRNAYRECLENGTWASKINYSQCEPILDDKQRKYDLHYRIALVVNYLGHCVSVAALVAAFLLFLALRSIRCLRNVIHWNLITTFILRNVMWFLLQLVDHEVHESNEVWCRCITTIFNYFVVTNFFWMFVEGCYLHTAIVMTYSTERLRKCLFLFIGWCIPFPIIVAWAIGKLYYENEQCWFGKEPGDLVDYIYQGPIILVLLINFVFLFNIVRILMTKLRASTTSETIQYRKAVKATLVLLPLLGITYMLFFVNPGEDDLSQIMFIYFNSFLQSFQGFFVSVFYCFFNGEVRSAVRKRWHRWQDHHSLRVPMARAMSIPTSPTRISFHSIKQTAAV
T1 sequence (P24387 whole entry): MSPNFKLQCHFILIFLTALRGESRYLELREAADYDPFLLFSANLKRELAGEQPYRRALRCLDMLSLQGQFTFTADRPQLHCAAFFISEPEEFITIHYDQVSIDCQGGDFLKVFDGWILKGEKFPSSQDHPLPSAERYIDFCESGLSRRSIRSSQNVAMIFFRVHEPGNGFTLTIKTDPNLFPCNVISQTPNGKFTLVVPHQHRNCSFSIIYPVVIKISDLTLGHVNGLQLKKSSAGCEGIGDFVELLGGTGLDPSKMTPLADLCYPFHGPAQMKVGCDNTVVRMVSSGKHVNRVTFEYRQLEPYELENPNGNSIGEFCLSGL
The experiment in a line: Dose Response confirmation of uHTS hits for small molecule antagonists of the CRF-binding protein and CRF-R2 receptor complex. Particulars: read-out: IC50_Mean. The class given is functional.

Series [2] addresses T1, Corticotropin-releasing factor receptor 2/Corticotropin-releasing factor-binding protein. The experiment in a line: activators of CRF receptor 2 with binding protein – uHTS hits, confirmation (AID 602473). The class given is functional. Particulars: read-out: EC50_Mean.
A short description of series [3]: Luminescence Cell-Based Dose Confirmation HTS to Identify Activators of 5'UTR Stem-Loop Driven Alpha-Synuclein mRNA Translation in H4 Neuroglioblastoma Cells. [Related pubchem assays: 1829 (Project Summary), 1814 (Primary HTS)]. The format is functional.
The nature of series [4]: Luminescence Cell-Based Dose Response HTS to Identify Activators of Luciferase Translation or Activity in H4 […] Cells. [Related pubchem assays: 1829 (Project Summary), 1814 (Primary HTS)]. The format is functional.
Series [5] has as its system H4. The experiment in a line: Luminescence Cell-Based Dose Response HTS to Identify Activators of 5'UTR Stem-Loop Driven Prion Protein mRNA Translation in H4 Neuroglioblastoma Cells. [Related pubchem assays: 1829 (Project Summary), 1814 (Primary HTS)]. The class given is functional. Particulars: Homo sapiens.
The target of series [6] is T2, RNA-binding protein pos-1 (Caenorhabditis elegans, UniProt G5EF15).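 Further: purified POS-1 fused to maltose binding protein made in E. coli; potency of compounds blocking POS-1 binding to fluorescent RNA.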
T2 sequence (G5EF15 whole entry): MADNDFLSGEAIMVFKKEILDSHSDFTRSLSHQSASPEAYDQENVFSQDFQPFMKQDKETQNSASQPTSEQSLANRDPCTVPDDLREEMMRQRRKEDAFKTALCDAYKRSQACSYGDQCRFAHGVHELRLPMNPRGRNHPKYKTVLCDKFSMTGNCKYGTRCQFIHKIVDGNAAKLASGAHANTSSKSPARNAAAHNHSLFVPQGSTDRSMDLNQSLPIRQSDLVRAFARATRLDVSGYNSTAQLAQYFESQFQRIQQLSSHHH
The experiment in a line: inhibitors of POS-1/mex-3 RNA binding, dose response, biochemical, fluorescence polarization (AID 1964). (In general: In fluorescence polarisation assays a small probe gives low polarisation when free and higher when bound to something large.)

In series [7] the target is T3, Zinc finger protein mex-5 (Caenorhabditis elegans, UniProt Q9XUB2).
T3 sequence (Q9XUB2 whole entry): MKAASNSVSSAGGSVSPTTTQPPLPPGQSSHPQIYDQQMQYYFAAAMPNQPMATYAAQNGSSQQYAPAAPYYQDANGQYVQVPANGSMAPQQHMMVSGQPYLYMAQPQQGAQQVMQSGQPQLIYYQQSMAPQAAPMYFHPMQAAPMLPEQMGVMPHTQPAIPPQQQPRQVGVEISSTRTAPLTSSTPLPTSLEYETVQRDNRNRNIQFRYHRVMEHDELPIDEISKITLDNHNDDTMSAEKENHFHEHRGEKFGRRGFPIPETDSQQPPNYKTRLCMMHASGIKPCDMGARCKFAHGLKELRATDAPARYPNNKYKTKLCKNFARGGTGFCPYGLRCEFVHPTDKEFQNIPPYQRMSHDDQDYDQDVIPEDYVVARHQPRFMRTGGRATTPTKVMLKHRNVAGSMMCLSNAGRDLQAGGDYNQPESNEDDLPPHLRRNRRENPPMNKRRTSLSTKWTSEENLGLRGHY
The experiment in a line: MEX-5/TCR-2 RNA interaction inhibitors, dose response, biochemical, C. elegans, fluorescence polarization (AID 1960).

Series [8] deals with Cytochrome P450 2C19 (Homo sapiens, UniProt P33261). The experiment in a line: Cytochrome panel assay with activity outcomes. Panel member name: p450-cyp2c19 Compounds with AC50 equal or less than 10 uM are considered active. The format is functional.
Series [9] has as its target Cytochrome P450 2C9 (Homo sapiens, UniProt P11712).
In series [10] the test system is H9c2. The experiment in a line: cells. The class given is functional, cell-based. The conditions noted are these: Rattus norvegicus, H9c2, Myocardium.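 Further: confirmatory concentration-response retest of ultra-high-throughput screening hits for modulation of myocardial damage; cell death induced by hydrogen peroxide oxidative stress; compound pretreatment for 60 min then peroxide exposure for 2 h; potency is for protecting the cells against peroxide damage rather than for killing them.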
Series [11] addresses T4, Cytochrome P450 1A2 (Homo sapiens, UniProt P05177).
T4 sequence (P05177 whole entry): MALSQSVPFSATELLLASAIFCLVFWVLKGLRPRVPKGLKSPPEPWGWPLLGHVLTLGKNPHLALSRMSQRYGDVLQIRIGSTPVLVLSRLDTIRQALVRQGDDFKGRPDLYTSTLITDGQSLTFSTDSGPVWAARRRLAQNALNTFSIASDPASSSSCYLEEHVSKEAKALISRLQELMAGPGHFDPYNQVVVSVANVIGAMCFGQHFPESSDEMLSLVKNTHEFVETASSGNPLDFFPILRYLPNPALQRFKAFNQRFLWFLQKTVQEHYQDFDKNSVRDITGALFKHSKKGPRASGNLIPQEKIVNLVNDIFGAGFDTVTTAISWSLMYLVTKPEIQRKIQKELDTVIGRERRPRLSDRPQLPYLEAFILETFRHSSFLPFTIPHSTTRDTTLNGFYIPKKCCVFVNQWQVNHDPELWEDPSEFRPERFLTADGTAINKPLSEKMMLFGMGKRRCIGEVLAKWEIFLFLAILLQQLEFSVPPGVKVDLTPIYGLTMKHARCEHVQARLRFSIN

Cytochrome P450 2C19, sequence (P33261 whole entry): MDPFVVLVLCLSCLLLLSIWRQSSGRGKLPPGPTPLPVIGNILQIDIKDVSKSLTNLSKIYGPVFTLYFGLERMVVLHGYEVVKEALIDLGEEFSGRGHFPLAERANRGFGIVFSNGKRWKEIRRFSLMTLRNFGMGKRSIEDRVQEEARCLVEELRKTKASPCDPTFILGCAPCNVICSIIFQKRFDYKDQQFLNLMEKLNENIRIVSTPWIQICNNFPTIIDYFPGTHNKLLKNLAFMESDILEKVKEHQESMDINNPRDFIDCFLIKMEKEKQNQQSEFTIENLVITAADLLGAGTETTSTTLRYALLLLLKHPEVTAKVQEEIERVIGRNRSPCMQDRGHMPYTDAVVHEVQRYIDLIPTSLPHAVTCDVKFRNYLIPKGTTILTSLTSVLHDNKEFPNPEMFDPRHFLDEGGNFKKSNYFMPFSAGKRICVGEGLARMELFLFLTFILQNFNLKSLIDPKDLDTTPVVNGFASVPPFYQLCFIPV
Cytochrome P450 2C9, sequence (P11712 whole entry): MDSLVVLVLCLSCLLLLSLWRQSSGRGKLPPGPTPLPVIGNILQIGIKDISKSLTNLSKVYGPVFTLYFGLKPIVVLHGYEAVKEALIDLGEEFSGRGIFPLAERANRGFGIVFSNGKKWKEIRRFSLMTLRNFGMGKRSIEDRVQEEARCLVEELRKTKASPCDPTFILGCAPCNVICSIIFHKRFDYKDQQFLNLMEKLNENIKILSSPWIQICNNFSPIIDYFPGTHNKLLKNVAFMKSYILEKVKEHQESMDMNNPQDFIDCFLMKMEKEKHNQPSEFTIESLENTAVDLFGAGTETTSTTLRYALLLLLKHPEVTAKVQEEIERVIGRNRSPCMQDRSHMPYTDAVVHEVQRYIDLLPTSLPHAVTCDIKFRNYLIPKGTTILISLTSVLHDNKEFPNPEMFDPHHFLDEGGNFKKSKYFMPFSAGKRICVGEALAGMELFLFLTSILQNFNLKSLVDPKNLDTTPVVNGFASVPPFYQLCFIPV

Take `CC(N=C1NS(=O)(=O)c2ccccc21)C(=O)N1CCc2ccccc2C1` (configuration not stated): in series [1], the IC50 is > 47.1 µM (inactive). In addition, the EC50 in [2] is > 53 µM (inactive).
Regarding `COC(=O)c1ccc(C2OCC(C)(C)CO2)cc1`, the EC50 in [3] is > 120 µM (not active); in series [4] it was 35.1 µM (active); in series [5] it was 24.9 µM (active).
As to `Cc1ccc(S(=O)(=O)NN=C(S)Nc2cccc(F)c2)cc1`, in [1], the IC50 is > 47.1 µM (inactive). For the same compound, the EC50 in [2] was > 53 µM (inactive).
Regarding `CSc1ccccc1NC(=O)c1cc(-c2cccs2)on1`, the figures for the EC50 in series [3], in [4] and in series [5] were 55.7 µM (active), > 120 µM (not active) and 17.9 µM (active), respectively.
Turning to `CC(=O)c1ccc(N(C(=O)Cn2nnc3ccccc32)C(C(=O)NCc2ccccc2)c2ccccn2)cc1` (configuration not stated), the EC50 was > 120 µM (not active) in [3], 8.14 µM (active) in series [4] and > 120 µM (not active) in series [5].
Turning to `CC(C)OC(=O)CC(=O)c1sc2nc3c(cc2c1N)CN(C)CC3`, the EC50 was > 300 µM (not active) in series [6] and 19.3 µM (inconclusive) in series [7].
By AC50 is commonly meant the concentration at which the activity in the assay is half-maximal. Regarding `Cc1ccc(Oc2nn[nH]n2)cc1`, the EC50 in series [3], in series [4] and in [5] was > 120 µM (not active) throughout. In addition, the figures for the AC50 result in series [8] and in [9] were “inconclusive” and 7.08 µM (inconclusive), respectively.
For the compound `COC(=O)c1ccc(C)c(-n2c(C)cc(C=O)c2C)c1`, the EC50 in series [6] and in [7] was > 300 µM (not active) in each case.
For the compound `Cc1cc(NC(=O)CSc2nc3c(C)cccc3cc2C#N)no1`, the EC50 in [3] was 47.9 µM (active); in [4], > 120 µM (not active); in series [5], 16.1 µM (active).
On to `COC/C=C/C1=CC2=CC(=O)C(C)(OC(=O)c3cccs3)C(=O)C2=CO1` (configuration not stated), for which the results for the EC50 in series [6] and in series [7] were > 300 µM (not active) and 51.8 µM (active), respectively.
In the case of `Cc1cc(NC(=O)Cn2nc3c(cc2=O)CCCC3)ccc1Br`, in series [1], the IC50 is > 47.1 µM (inactive). Moreover, the EC50 in [2] is > 53 µM (inactive).
The matching figures for `COc1ccc(N2CCN(CCCNC(=O)CN3CCN(Cc4ccccc4C)C3=O)CC2)cc1`: > 47.1 µM (inactive) and > 53 µM (inactive).
With `Clc1ccc(-c2csc(N3CCC(c4ccccc4)C3)n2)cc1` (configuration not stated), the EC50 was 18.5 µM (active) in series [3], 25.7 µM (active) in [4] and 31.5 µM (active) in series [5].
The matching figures for `Nn1c(SCc2ccccc2)nnc1C1CCCCC1`: 25.5 µM (active), 10.6 µM (active) and 21 µM (active).
The matching figures for `O=C(CSCc1cccc(F)c1)N1CCN(c2ccccc2)CC1`: 0.47 µM (active), 6.73 µM (active) and > 120 µM (not active).
In the case of `Cc1ccc(N/C=C(/C#N)c2ccsc2)cc1`, the EC50 was 46.7 µM (active) in series [3], 52.3 µM (active) in [4] and 68.4 µM (active) in series [5].
With `Cc1ccc(-c2ccccc2)n1-c1cccc(C(=O)O)c1`, the EC50 was 109 µM (active) in [6] and > 300 µM (not active) in [7].
In the case of `Cc1nc2ccccc2c2c(N)c3ccccc3n12`, in series [10], the IC50 is 21.6 µM (active).
Consider `O=[N+]([O-])c1ccccc1S(=O)(=O)n1nnc2ccccc21`, for which the EC50 in series [6] and in series [7] was > 300 µM (not active) throughout.
As for `CCOC(=O)[C@@]1(C#N)C(c2ccc(Cl)c(Cl)c2)[C@H](C(N)=O)N2C=C(C(C)=O)C=C[C@H]21` (some centres not stated), the EC50 in [6] is 55.7 µM (inconclusive); in series [7], 24 µM (inconclusive).
The matching figures for `COc1ccc(CNC(=O)COC(=O)c2cc(-c3ccc(Cl)s3)nc3ccccc23)cc1`: 92.1 µM (active) and 58.6 µM (active).
As for `CC(C)c1ccc(C2C(C#N)=C(N)N3C(=C2C#N)Sc2ccccc23)cc1` (configuration not stated), the EC50 in [6] was 33 µM (inconclusive); in series [7], 61.3 µM (active). Moreover, the concentration at half-maximal activity (AC50) in series [8] (read-out: AC50) was 14.1 µM (inconclusive); in series [11], 25.1 µM (inconclusive); in [9] it was 10 µM (inconclusive).
Regarding `COC(=O)C1CSc2[nH]c(=O)sc2C1c1ccc(O)c(OC)c1` (configuration not stated), the IC50 in series [1] was > 47.1 µM (inactive). Further, in [2], the EC50 was > 53 µM (inactive).
As to `COc1cc(C2C(C#N)=C(N)OC3=C2C(=O)CCC3)ccc1OC(=O)N1CCOCC1` (configuration not stated), the EC50 in series [6] and in series [7] was > 300 µM (not active) each time.
Regarding `N#CC(c1nc2ccccc2nc1OCCO)S(=O)(=O)c1ccccc1` (configuration not stated), the EC50 is > 300 µM (not active) in [6] and 142 µM (inconclusive) in series [7].
`Nc1c(C(=O)N2CCCCCC2)oc2ccccc12`: in series [1], the IC50 is > 47.1 µM (inactive). Moreover, the EC50 in series [2] was > 53 µM (inactive).
The matching figures for `CN(Cc1ccccc1)C(=O)c1cccc(NC(=O)Cc2ccc(NC(=O)C3CCCN(C(=O)CCc4ccccc4)C3)cc2)c1` (configuration not stated): > 47.1 µM (inactive) and > 53 µM (inactive).
With `CC1=CC(C)(C(Cl)(Cl)Cl)C(C)=CC1=NO` (configuration not stated), in series [1], the IC50 was > 47.1 µM (inactive). Also, the EC50 in series [2] is > 53 µM (inactive).
With `Cc1ccccc1N(CC(=O)N1CCN(Cc2ccccc2)CC1)S(C)(=O)=O`, the IC50 in series [1] is > 47.1 µM (inactive). In addition, in series [2], the EC50 was > 53 µM (inactive).
Turning to `C/C(=N/C1CC1)C1=C(O)c2ccccc2C1=O`, the EC50 in [3] is > 120 µM (not active); in series [4], 20.2 µM (active); in series [5], 6.75 µM (active).
The matching figures for `O=[N+]([O-])c1cccc(/N=C/C=C(/O)c2ccco2)c1`: 1.14 µM (active), 17 µM (active) and > 120 µM (not active).
